Where “and” joins values, the source holds several entries; their conditions need not be identical. Identical values can stand only once. Like-named read-outs stand apart in the source and are kept apart here. Non-standard residues stand in square brackets, D forms with d. Residues, ends and D or L forms follow the SMILES beside them. No end group written: not given here.
What was measured:
αIIbβ3 headpiece [1] = biological target: T1, αIIbβ3 headpiece (Homo sapiens, UniProt P05106+P08514); experiment: Fluorescence anisotropy binding assay (saturation and competition with FITC-dodecapeptide); parameters: increasing the concentration of purified recombinant αIIbβ3 headpiece to saturation; C-terminal α-helical coiled-coil (C); made in house; conditions: for reduction in affinity relative to AGDV: fluorescence anisotropy, Mn2+/Ca2+; for Kd: read-out: KD, competitive binding
Experimental: Binding affinities for different peptide ligands were measured using fluorescence anisotropy as described previously ([12]). Anisotropy is defined as (F‖ − F⊥)/(F‖ + 2F⊥), where F‖ and F⊥are the fluorescence intensities parallel and perpendicular to the excitation plane, respectively. mA units (shown in figures) correspond to 1,000 × anisotropy. […] KD^F* was fitted using one-site, specific binding; i.e. A = Amax × Citg/(KD^F* + Citg), where A represents the anisotropy signal from specific binding, Citg represents the concentration of integrin αIIbβ3 headpiece, and Amax is the maximum anisotropy signal. Background anisotropy obtained by adding an excess of 10 μM tirofiban was subtracted from anisotropy.
I50 values for unlabeled peptides were obtained by least squares fitting. […] All measurements were in 20 mM HEPES, pH 7.5, 150 mM NaCl, 2 mM MnCl2, 0.1 mM CaCl2. The Prism GraphPad program (La Jolla, CA) was used to fit the saturation binding curve, inhibition curves, and I50 values.

[2] = biological target: T2, CHO cells stably expressing full-length human αIIbβ3 (Homo sapiens, UniProt P05106+P08514); experiment: Ligand-induced binding site (LIBS1) epitope expression, flow cytometry; format: cell-based
T2 construct: CHO K1 cells stably transfected with full-length αIIbβ3; expressed in transfected cells; host or cells: CHO K1 cells, stably transfected
Experimental: CHO K1 cells stably transfected with full-length αIIbβ3 ([16]) were incubated at room temperature with serially diluted peptide in 20 mM HEPES, pH 7.4, 150 mM NaCl, 5.5 mM glucose, 1% BSA, 1 mM Mg^2+/Ca^2+, and 10 μg/ml LIBS1 antibody for 30 min. Mixtures were washed twice in the same buffer minus LIBS1. The washed cells were incubated with FITC-conjugated anti-mouse antibody at room temperature for 30 min, washed again, chilled on ice, and subjected to flow cytometry. The dose-response curves were fit, and EC50 values were calculated by Prism GraphPad.

αIIbβ3 headpiece [3] = biological target: T1, αIIbβ3 headpiece; experiment: Dynamic light scattering (DLS) of headpiece with peptide: headpiece opening; conditions: αIIbβ3 headpiece (20 μM) + 1 mM peptide; TBS pH 7.4, 1 mM Mg2+, 1 mM Ca2+, 10 min, 25 °C; headpiece alone 4.69 ± 0.02; triplicate, mean ± S.D.
Experimental: (§1) Digested headpiece was purified by passage through a nickel-nitrilotriacetic acid column ([13]). For Stokes radius measurements, the re-purified headpiece at 10 μM (1 mg/ml by A280) was incubated with 1 mM peptide ligand in 20 mM TBS with 1 mM Mg^2+ and 1 mM Ca^2+ at 25 °C for 30 min and then applied to a Superdex 200 column (GE Healthcare Life Sciences) pre-equilibrated with the same buffer containing 1 mM peptide. Calibration and conversion of elution volume to Stokes radius was as described ([11]). For DLS, 20 μM chymotrypsin-treated, re-purified headpiece was filtered through a 100 nm cutoff membrane (Millipore Ultrafree centrifugal filter), incubated with 1 mM peptide in TBS plus 1 mM Mg^2+/Ca^2+ for 10 min at 25 °C in the cuvette, and read in the Viscotek 802 DLS (Viscotek Corp.). The DLS-derived hydration radii (Rh) were obtained by intensity-based fitting using the OmniSize program for 2–3 independent measurements using the same batch of integrin headpiece sample, but measured in different days. Each measurement was an average of at least fifteen 10-s reads.
(§2) The change in Stokes radius was also measured by size-exclusion chromatography (Fig. 3B).

αIIbβ3 headpiece [4] = biological target: T1, αIIbβ3 headpiece; experiment: Size-exclusion chromatography (Superdex 200) of headpiece with peptide: headpiece opening; conditions: for elution volume of αIIbβ3 headpiece: Superdex 200, 1 mM peptide, buffer alone 12.56 ± 0.01 ml, mean; for Stokes radii, Size-exclusion: αIIbβ3 headpiece (10 μM) + 1 mM peptide, Superdex 200, TBS, 1 mM Mg2+/Ca2+, 25 °C, 30 min, headpiece alone 4.78 ± 0.02, duplicate, mean and difference from mean
Experimental: as §1, §2

αIIbβ3 headpiece [5] = biological target: T1, αIIbβ3 headpiece; experiment: Ligand soaking into closed αIIbβ3 headpiece crystals, conformational state by X-ray structure; parameters: increasing the concentration of purified recombinant αIIbβ3 headpiece to saturation; C-terminal α-helical coiled-coil (C); made in house; conditions: 4 °C, state 1 closed, state 8 open
Experimental: The αIIbβ3 headpiece was crystallized in the closed conformation with the thigh domain removed ([11]). Briefly, chymotrypsin- and carboxypeptidase-treated αIIbβ3-10E5 Fab complex was concentrated to 10 mg/ml in TBS (20 mM Tris, 150 mM NaCl, pH 7.4) with 1 mM Mg^2+, 1 mM Ca^2+ and crystallized in 11% PEG 8000, 0.2 M ammonium sulfate, 0.1 M Tris-HCl, pH 8.9 at 4 °C ([11]). Crystals were then stabilized with the same crystallization buffer but containing 15% PEG 8000, and glycerol concentration was incremented in 5% steps to 20% for cryoprotection. Finally, crystals were soaked in ligand in the same buffer with defined metal conditions for a specified duration at 4 °C (see Table 1). Diffraction data were collected at beamline ID-23 of the Advanced Photon Source (Argonne, IL). Resolution limit was determined by cross-correlation ([14]). Refinements using Phenix ([15]) were as described previously ([4]).
We soaked AGDV peptide into αIIbβ3 headpiece crystals in the closed conformation (state 1) in 1 mM Mn^2+ and 0.2 mM Ca^2+ and were able to trap four distinct intermediate states during headpiece opening (Table 1). […] Two copies of the αIIbβ3 headpiece complex (molecules 1 and 2) exist in one asymmetric unit ([4]), so we were able to obtain two different conformational states in a single crystal (Table 1). Based on the conformation and position of the moving parts of the βI domain, i.e. the β1-α1 loop, α1-helix, β6-α7 loop, and the ADMIDAS metal, each intermediate (Fig. 4) is assigned a state number between 1 (Fig. 4A) and 8 (Fig. 4B) corresponding to previous RGD-bound intermediates ([4]). AGDV binds in the groove formed between the α- and β-subunits (Fig. 4, C, E, G, and I), but has limited contact with α, because it occupies only a portion (about two-thirds) of the groove occupied by RGD (Fig. 4B). The N-terminal amine of AGDV is >9.0 Å away from Asp-224 of αIIb, which forms salt bridges to the Arg of RGD and the Lys of KQAGDV. Moreover, unlike the extended backbone conformation adopted by RGD (Fig. 4, A and B), the backbone of AGDV is curved (Fig. 4, C, E, G, and I).

αIIbβ3 = conditions: cited from earlier work
Source text: Ro-435054 is a 4-residue peptidomimetic, with an N-terminal amidinobenzoyl, a β-alanine, an L-Asp, and a C-terminal L-Phe (Fig. 7A). […] The high-affinity RGDF peptide ([19]) may be considered both fibrinogen-mimetic and RGD-mimetic. RGDF has the same two C-terminal a ...

[6] = system: fibrinogen binding to platelets; parameters: method as in PMID 6326808; conditions: read-out: IC50, block of fibrinogen binding to platelets; cited from earlier work

T1 sequence (P08514 32-652 limits assumed): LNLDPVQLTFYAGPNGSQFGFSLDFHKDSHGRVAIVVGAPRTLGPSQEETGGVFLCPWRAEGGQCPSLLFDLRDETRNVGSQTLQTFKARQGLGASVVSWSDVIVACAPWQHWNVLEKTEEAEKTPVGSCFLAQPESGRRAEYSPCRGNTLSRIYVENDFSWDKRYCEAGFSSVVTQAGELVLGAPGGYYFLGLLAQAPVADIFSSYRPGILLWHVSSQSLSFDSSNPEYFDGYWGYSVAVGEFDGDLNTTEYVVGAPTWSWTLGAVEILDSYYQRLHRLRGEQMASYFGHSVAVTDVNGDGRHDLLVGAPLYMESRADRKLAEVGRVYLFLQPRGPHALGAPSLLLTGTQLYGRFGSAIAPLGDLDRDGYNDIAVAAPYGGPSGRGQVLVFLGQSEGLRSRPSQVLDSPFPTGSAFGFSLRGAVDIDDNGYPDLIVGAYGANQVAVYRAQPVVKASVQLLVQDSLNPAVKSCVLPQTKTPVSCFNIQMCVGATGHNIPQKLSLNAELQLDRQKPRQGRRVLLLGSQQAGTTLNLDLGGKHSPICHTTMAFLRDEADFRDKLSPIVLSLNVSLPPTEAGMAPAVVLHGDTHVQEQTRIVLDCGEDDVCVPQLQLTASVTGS
T1 sequence (P05106 27-498 limits assumed): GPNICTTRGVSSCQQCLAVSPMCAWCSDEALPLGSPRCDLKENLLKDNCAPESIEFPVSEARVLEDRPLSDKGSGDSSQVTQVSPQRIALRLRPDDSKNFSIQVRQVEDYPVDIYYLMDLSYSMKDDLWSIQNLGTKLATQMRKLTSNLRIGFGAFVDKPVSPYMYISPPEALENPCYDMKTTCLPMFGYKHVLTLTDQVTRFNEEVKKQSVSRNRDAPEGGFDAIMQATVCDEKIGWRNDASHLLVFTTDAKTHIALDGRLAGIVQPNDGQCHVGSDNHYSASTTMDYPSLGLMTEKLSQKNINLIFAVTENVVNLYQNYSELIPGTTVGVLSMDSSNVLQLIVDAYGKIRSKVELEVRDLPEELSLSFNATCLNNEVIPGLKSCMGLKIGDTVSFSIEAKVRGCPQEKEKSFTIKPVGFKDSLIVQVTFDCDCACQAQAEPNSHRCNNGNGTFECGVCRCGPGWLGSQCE
T2 sequence (P08514 32-887 limits assumed): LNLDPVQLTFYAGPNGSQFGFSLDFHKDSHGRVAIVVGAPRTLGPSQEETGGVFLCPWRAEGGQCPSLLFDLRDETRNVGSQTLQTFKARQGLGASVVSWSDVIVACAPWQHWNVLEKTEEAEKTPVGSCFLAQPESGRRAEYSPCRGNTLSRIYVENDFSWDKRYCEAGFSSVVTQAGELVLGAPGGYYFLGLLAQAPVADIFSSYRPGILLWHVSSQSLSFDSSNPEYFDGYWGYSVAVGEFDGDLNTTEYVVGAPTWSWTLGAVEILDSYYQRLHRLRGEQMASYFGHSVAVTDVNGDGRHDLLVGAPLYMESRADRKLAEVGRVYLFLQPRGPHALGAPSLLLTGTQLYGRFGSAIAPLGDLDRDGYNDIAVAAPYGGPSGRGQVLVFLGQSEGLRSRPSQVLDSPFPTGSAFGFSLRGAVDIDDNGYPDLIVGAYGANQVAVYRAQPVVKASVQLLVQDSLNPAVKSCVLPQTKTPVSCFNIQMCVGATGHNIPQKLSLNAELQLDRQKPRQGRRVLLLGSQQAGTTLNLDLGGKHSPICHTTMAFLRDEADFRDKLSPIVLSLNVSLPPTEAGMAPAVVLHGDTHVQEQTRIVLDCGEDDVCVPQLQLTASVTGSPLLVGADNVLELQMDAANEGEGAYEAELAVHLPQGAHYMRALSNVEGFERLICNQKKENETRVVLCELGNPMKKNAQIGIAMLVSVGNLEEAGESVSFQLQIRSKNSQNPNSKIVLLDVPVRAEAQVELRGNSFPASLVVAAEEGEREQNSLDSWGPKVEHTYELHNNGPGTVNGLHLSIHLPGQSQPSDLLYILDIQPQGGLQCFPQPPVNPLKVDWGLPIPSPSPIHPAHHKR
T2 sequence (P08514 891-1039 partner limits assumed): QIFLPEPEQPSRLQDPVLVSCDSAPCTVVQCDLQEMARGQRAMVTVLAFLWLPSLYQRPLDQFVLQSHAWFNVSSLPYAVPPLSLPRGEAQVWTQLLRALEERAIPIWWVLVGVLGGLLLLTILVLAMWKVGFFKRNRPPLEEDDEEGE
T2 sequence (P05106 27-788): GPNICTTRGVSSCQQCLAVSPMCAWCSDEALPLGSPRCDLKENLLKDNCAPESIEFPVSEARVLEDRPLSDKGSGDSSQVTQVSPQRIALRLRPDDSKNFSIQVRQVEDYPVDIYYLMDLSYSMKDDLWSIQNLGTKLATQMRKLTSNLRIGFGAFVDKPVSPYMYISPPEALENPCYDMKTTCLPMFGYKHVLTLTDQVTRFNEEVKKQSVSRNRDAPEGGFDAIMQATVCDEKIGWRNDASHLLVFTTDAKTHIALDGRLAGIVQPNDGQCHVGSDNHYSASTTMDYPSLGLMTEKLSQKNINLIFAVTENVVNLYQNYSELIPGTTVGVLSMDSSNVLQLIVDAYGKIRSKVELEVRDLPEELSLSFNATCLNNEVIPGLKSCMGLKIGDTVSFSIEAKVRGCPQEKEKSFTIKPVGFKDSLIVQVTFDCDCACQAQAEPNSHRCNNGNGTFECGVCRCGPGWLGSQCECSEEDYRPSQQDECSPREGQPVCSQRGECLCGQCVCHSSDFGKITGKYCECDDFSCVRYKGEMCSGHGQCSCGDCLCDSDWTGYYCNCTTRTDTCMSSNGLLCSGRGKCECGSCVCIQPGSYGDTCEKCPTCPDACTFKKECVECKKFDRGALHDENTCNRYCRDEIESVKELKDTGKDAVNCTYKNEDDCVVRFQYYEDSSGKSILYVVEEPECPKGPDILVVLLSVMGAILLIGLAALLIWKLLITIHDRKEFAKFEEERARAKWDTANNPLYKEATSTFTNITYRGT

## CC(C)[C@@H](NC(=O)[C@H](CC(=O)O)NC(=O)CNC(=O)[C@H](C)N)C(=O)O [AGD(v)] (H-AGD[dV]-OH)
αIIbβ3 headpiece [1]; ratio of KD values
  reduction in affinity relative to AGDV: 24 fold
αIIbβ3 headpiece [1]
  Kd: 217 ± 85.2 µM

## CC(C)[C@H](NC(=O)[C@H](CC(=O)O)NC(=O)CNC(=O)[C@H](C)N)C(N)=O [AGDV-NH2] (H-AGDV-NH2)
αIIbβ3 headpiece [1]
  Kd: 50.9 ± 13 µM

## COC(=O)[C@@H](NC(=O)[C@H](CC(=O)O)NC(=O)CNC(=O)[C@H](C)N)C(C)C [AGDV-OCH3] (H-AGDV-OMe)
αIIbβ3 headpiece [1]; ratio of KD values
  reduction in affinity relative to AGDV: 7.5 fold
αIIbβ3 headpiece [1]
  Kd: 67.6 ± 23.3 µM

## CC(C)[C@H](NC(=O)[C@H](CC(=O)O)NC(=O)CNC(=O)[C@H](C)N)C(=O)O [AGDV] (H-AGDV-OH)
[2]; ratio of EC50 values
  less effective than GRGDSP (LIBS1 EC50): ~7 times
  less effective when compared with dodecapeptide (LIBS1 EC50): 2.5 times
αIIbβ3 headpiece [3]
  Stokes radii, DLS: 5.24 ± 0.03 nm and 5.2 nm
αIIbβ3 headpiece [4]
  elution volume of αIIbβ3 headpiece: 12.19 ± 0.05 mL
  Stokes radii, Size-exclusion: 5.17 nm
αIIbβ3 headpiece [1]; in Mn2+/Ca2+, ratio of KD values
  less potent than the dodecapeptide: ~7 times
αIIbβ3 headpiece [1]
  Kd: 9.03 ± 2.75 µM
αIIbβ3 headpiece [5]; 50 mM ligand, Mn/Ca (2 mM MnCl2, 0.1 mM CaCl2), soak 1 week
  Conformational states (molecule 1/molecule 2): State 7/state 2
αIIbβ3 headpiece [5]; 50 mM ligand, Mn/Ca (2 mM MnCl2, 0.1 mM CaCl2), soak 2 h
  Conformational states (molecule 1/molecule 2): State 6/state 3

## CC(=O)N[C@@H](C)C(=O)NCC(=O)N[C@@H](CC(=O)O)C(=O)N[C@H](C(=O)O)C(C)C [Ac-AGDV, N-acetylated AGDV] (Ac-AGDV-OH)
αIIbβ3 headpiece [1]
  Kd: 1 ± 0.46 µM

## N=C(N)c1ccc(C(=O)NCCC(=O)N[C@@H](CC(=O)O)C(=O)N[C@@H](Cc2ccccc2)C(=O)O)cc1 [Ro-435054]
αIIbβ3
  binds the high-affinity state better than the low-affinity state: ~100 fold
αIIbβ3; read-out: KD, high-affinity state of αIIbβ3
  Kd: 0.006 µM
αIIbβ3; read-out: KD, low-affinity state of αIIbβ3
  Kd: 0.58 µM
αIIbβ3 headpiece [5]; 1 mM ligand, Mg/Ca (1 mM MgCl2, 1 mM CaCl2), soak 2 h
  Conformational states (molecule 1/molecule 2): State 6/state 3

## AGD
[6]
  IC50: ~100 µM

## HHLGGAKQAGDV [fibrinogen γC dodecapeptide, reference compound]
[2]; CHO K1 αIIbβ3 transfectants, 1 mM Mg2+/1 mM Ca2+, 10 μg/ml LIBS1, 30 min, room temperature, flow cytometry, mean ± S.D., read-out: EC50, LIBS1 epitope exposure
  EC50: 578 ± 222 µM
αIIbβ3 headpiece [1]
  Kd: 1.27 ± 0.08 µM

## RGDF [reference compound]
αIIbβ3 headpiece [3]
  Stokes radii, DLS: 5.19 ± 0.04 nm
αIIbβ3 headpiece [4]
  elution volume of αIIbβ3 headpiece: 12.15 ± 0.06 mL
  Stokes radii, Size-exclusion: 5.23 nm
